Experimental data published in patent US11028066B2, “Inhibitors of lysine specific demethylase-1” (CELGENE QUANTICEL RESEARCH, INC., priority 2014, dated 2021).

How the values were obtained:
THP-1 (AML) cells = assay: LSD1 CD11b cellular assay (flow cytometry); format: cell-based; conditions: Homo sapiens, THP-1, 96 h; CD11b expressing cells, 4 days incubation
Experimental: To analyze LSD1 inhibitor efficacy in cells, a CD11b flow cytometry assay was performed. LSD1 inhibition induces CD11b expression in THP-1 (AML) cells which can be measured by flow cytometry. […] LSD1 test compounds were serially diluted in DMSO. The dilutions were added to each well accordingly to a final concentration of 0.2% DMSO. The cells were incubated at 37 degrees Celsius in 5% CO2 for 4 days. 250 μL of each well was transferred to a well in a 96 well round bottom plate. The plate was centrifuged at 1200 rpm at 4 degrees Celsius in a Beckman Coulter Alegra 6KR centrifuge for 5 minutes. The media was removed leaving the cells at the bottom of the wells. The cells were washed in 100 μL cold HBSS (Hank's Balanced Salt Solution) plus 2% BSA (Bovine Serum Albumin) solution and centrifuged at 1200 rpm at 4 degrees Celsius for 5 minutes. The wash was removed. […] The cells were centrifuged and washed two times in 100 μL HBSS plus 2% BSA. After the final spin the cells were resuspended in 100 μL HBSS plus 2% BSA containing 1 ug/mL DAPI (4′,6-diamidino-2-phenylindole). The cells were then analyzed by flow cytometry in a BD FACSAria machine. Cells were analyzed for CD11b expression. The percent of CD11b expressing cells for each inhibitor concentration was used to determine an IC50 curve for each compound analyzed.

full-length human LSD1 = full-length human LSD1 (Homo sapiens (Human), UniProt O60341); assay: In vitro enzyme inhibition assay LSD-1 (TR-FRET); format: biochemical; conditions: H3K4me1-biotin peptide
Experimental: This assay determines the ability of a test compound to inhibit LSD1 demethylase activity.
The enzymatic assay of LSD1 activity is based on Time Resolved-Fluorescence Resonance Energy Transfer (TR-FRET) detection.
Plates were read by EnVision Multilabel Reader in TR-FRET mode (excitation at 320 nm, emission at 615 nm and 665 nm) after 1 hour incubation at room temperature.
The ability of the compounds disclosed herein to inhibit LSD1 activity was quantified and the respective IC50 value was determined.

IC50 (THP-1 (AML) cells) | IC50 (full-length human LSD1) | Structure (SMILES)
< 100 nM | < 100 nM | CNC1CCN(c2cc(-c3ccc(C#N)c(F)c3)c(-c3ccc(OC)cc3)n(C)c2=O)CC1 [Example 79, 2-fluoro-4-{2-(4-methoxyphenyl)-1-methyl-5-[4-(methylamino)piperidyl]-6-oxo(3-hydropyridyl)}benzenecarbonitrile]
< 100 nM | < 100 nM | CNC1CCN(c2cc(-c3ccc(C#N)cc3)c(-c3ccc(C)cc3)n(C)c2=O)CC1 [Example 80, 4-{1-methyl-5-[4-(methylamino)piperidyl]-2-(4-methylphenyl)-6-oxo-3-hydropyridyl}benzenecarbonitrile]
< 100 nM | < 100 nM | COc1ccc(-c2c(-c3ccc(C#N)nc3)nc(N3CCC(N)CC3)c(=O)n2C)cc1 [Example 51, 5-[6-(4-amino-piperidin-1-yl)-3-(4-methoxy-phenyl)-4-methyl-5-oxo-4,5-dihydro-pyrazin-2-yl]-pyridine-2-carbonitrile]
100 to 1000 nM | < 100 nM | N#Cc1ccc(-c2cn(Cc3cccc(F)c3)c(=O)c(N3CCC(N)CC3)n2)cc1 [Example 8, 4-[6-(4-aminopiperidin-1-yl)-4-[(3-fluorophenyl)methyl]-5-oxo-4,5-dihydropyrazin-2-yl]benzonitrile]
1000 to 10000 nM | < 100 nM | N#Cc1ccc(-c2cn(Cc3cccc(Cl)c3)c(=O)c(N3CCC(N)CC3)n2)cc1 [Example 4, 4-[6-(4-aminopiperidin-1-yl)-4-(3-chloro-benzyl)-5-oxo-4,5-dihydro-pyrazin-2-yl]-benzonitrile]
< 100 nM | < 100 nM | COc1ccc(-c2c(-c3ccc(C#N)c(F)c3)nc(N3CCC(N)CC3)c(=O)n2CC(N)=O)cc1 [Example 88, 2-[3-(4-aminopiperidyl)-5-(4-cyano-3-fluorophenyl)-6-(4-methoxyphenyl)-2-oxohydropyrazinyl]acetamide]
< 100 nM | < 100 nM | COCCCn1c(-c2ccc(C)cc2)c(-c2ccc(C#N)c(F)c2)nc(N2CCC(N)CC2)c1=O [Example 45, 4-[6-(4-aminopiperidyl)-4-(3-methoxypropyl)-3-(4-methylphenyl)-5-oxo(4-hydropyrazin-2-yl)]-2-fluorobenzenecarbonitrile]
100 to 1000 nM | < 100 nM | COc1ccc(-c2c(-c3ccc(C#N)nc3)cc(N3CCC(N)CC3)c(=O)n2C)cc1 [Example 68, 5-(5-(4-aminopiperidin-1-yl)-2-(4-methoxyphenyl)-1-methyl-6-oxo-1,6-dihydropyridin-3-yl)picolinonitrile]
< 100 nM | < 100 nM | CCc1ccc(-c2c(-c3ccc(C#N)c(F)c3)nc(NC[C@H]3CCNC3)c(=O)n2C)cc1 [Example 57, 4-{3-(4-ethyl-phenyl)-4-methyl-5-oxo-6-[((3S)-pyrrolidin-3-ylmethyl)-amino]-4,5-dihydro-pyrazin-2-yl}-2-fluoro-benzonitrile]
100 to 1000 nM | < 100 nM | COc1ccc(-c2c(-c3ccc(C#N)cc3)nc(NC[C@@H]3CCNC3)c(=O)n2C)cc1 [Example 32, 4-[3-(4-methoxyphenyl)-4-methyl-5-oxo-6-{[(3R)-pyrrolidin-3-ylmethyl]amino}-4,5-dihydropyrazin-2-yl]benzonitrile]
100 to 1000 nM | < 100 nM | N#Cc1ccc(-c2cn(Cc3ccccc3F)c(=O)c(N3CCC(N)CC3)n2)cc1 [Example 3, 4-[6-(4-aminopiperidin-1-yl)-4-[(2-fluorophenyl)methyl]-5-oxo-4,5-dihydropyrazin-2-yl]benzonitrile]
< 100 nM | < 100 nM | CCc1ccc(-c2c(-c3ccc(C#N)nc3)nc(NC[C@H]3CCNC3)c(=O)n2C)cc1 [Example 56, 5-{3-(4-ethyl-phenyl)-4-methyl-5-oxo-6-[((3S)-pyrrolidin-3-ylmethyl)-amino]-4,5-dihydro-pyrazin-2-yl}-pyridine-2-carbonitrile]
< 100 nM | < 100 nM | COc1ccc(-c2c(-c3ccc(C#N)cc3)cc(N3CCC(N)CC3)c(=O)n2CC2CC2)cc1 [Example 81, 4-[5-(4-aminopiperidin-1-yl)-1-(cyclopropylmethyl)-2-(4-methoxyphenyl)-6-oxopyridin-3-yl]benzonitrile]
100 to 1000 nM | < 100 nM | CCc1ccc(-c2c(-c3ccc(C#N)cc3)nc(NC[C@@H]3CCNC3)c(=O)n2C)cc1 [Example 29, 4-[3-(4-ethylphenyl)-4-methyl-5-oxo-6-{[(3R)-pyrrolidin-3-ylmethyl]amino}-4,5-dihydropyrazin-2-yl]benzonitrile]
< 100 nM | < 100 nM | Cn1c(-c2ccc(C3CC3)cc2)c(-c2ccc(C#N)nc2)cc(NC[C@H]2CCNC2)c1=O [Example 73, (S)-5-(2-(4-cyclopropylphenyl)-1-methyl-6-oxo-5-(pyrrolidin-3-ylmethylamino)-1,6-dihydropyridin-3-yl)picolinonitrile]
100 to 1000 nM | < 100 nM | N#Cc1ccc(-c2cn(CC3CCOC3)c(=O)c(N3CCC(N)CC3)n2)cc1F (stereo not drawn) [Example 14, 4-[6-(4-amino-piperidin-1-yl)-5-oxo-4-(tetrahydro-furan-3-ylmethyl)-4,5-dihydro-pyrazin-2-yl]-2-fluoro-benzonitrile]
100 to 1000 nM | < 100 nM | Cc1ccc(Cn2cc(-c3ccc(C#N)cc3)nc(N3CCC(N)CC3)c2=O)cc1 [Example 2, 4-[6-(4-aminopiperidin-1-yl)-4-[(4-methylphenyl)methyl]-5-oxo-4,5-dihydropyrazin-2-yl]benzonitrile]
< 100 nM | < 100 nM | COc1ccc(-c2c(-c3ccc(C#N)c(F)c3)nc(N3CCC(N)CC3)c(=O)n2C)cc1 [Example 52, 4-[6-(4-amino-piperidin-1-yl)-3-(4-methoxy-phenyl)-4-methyl-5-oxo-4,5-dihydro-pyrazin-2-yl]-2-fluoro-benzonitrile]
< 100 nM | < 100 nM | COc1ccc(-c2c(-c3ccc(C#N)c(F)c3)nc(N3CCC(N)CC3)c(=O)n2CCC(N)=O)cc1 [Example 89, 3-[3-(4-aminopiperidyl)-5-(4-cyano-3-fluorophenyl)-6-(4-methoxyphenyl)-2-oxohydropyrazinyl]propanamide]
100 to 1000 nM | < 100 nM | N#Cc1ccc(-c2cn(CC3CCOCC3)c(=O)c(N3CCC(N)CC3)n2)cc1F [Example 15, 4-[6-(4-amino-piperidin-1-yl)-5-oxo-4-(tetrahydro-pyran-4-ylmethyl)-4,5-dihydro-pyrazin-2-yl]-2-fluoro-benzonitrile]
100 to 1000 nM | < 100 nM | Cc1ccc(-c2c(-c3ccc(C#N)cc3)nc(N3CCC(C)(N)CC3)c(=O)n2C)cc1 [Example 21, 4-[6-(4-amino-4-methylpiperidin-1-yl)-4-methyl-3-(4-methylphenyl)-5-oxo-4,5-dihydropyrazin-2-yl]benzonitrile]
< 100 nM | < 100 nM | CCc1ccc(-c2c(-c3ccc(C#N)cc3)nc(N3CCC(N)CC3)c(=O)n2C)cc1 [Example 27, 4-[6-(4-aminopiperidin-1-yl)-3-(4-ethylphenyl)-4-methyl-5-oxo-4,5-dihydropyrazin-2-yl]benzonitrile]
< 100 nM | < 100 nM | Cn1c(-c2ccc(OC(F)(F)F)cc2)c(-c2ccc(C#N)c(F)c2)nc(NC[C@H]2CCNC2)c1=O [Example 63, 2-fluoro-4-[4-methyl-5-oxo-6-[((3S)-pyrrolidin-3-ylmethyl)-amino]-3-(4-trifluoromethoxy-phenyl)-4,5-dihydro-pyrazin-2-yl]-benzonitrile]
100 to 1000 nM | < 100 nM | COc1ccc(Cn2cc(-c3ccc(C#N)cc3)nc(N3CCC(N)CC3)c2=O)cc1 [Example 11, 4-[6-(4-aminopiperidin-1-yl)-4-[(4-methoxyphenyl)methyl]-5-oxo-4,5-dihydropyrazin-2-yl]benzonitrile]
< 100 nM | < 100 nM | Cc1ccc(-c2c(-c3ccc(C#N)cc3)nc(N3CCC(N)CC3)c(=O)n2CCO)cc1 [Example 37, 4-[6-(4-amino-piperidin-1-yl)-4-(2-hydroxy-ethyl)-5-oxo-3-p-tolyl-4,5-dihydro-pyrazin-2-yl]-benzonitrile]
< 100 nM | < 100 nM | COc1ccc(-c2c(-c3ccc(C#N)cc3)nc(N3CCC(N)CC3)c(=O)n2C)cc1 [Example 30, 4-[6-(4-aminopiperidin-1-yl)-3-(4-methoxyphenyl)-4-methyl-5-oxo-4,5-dihydropyrazin-2-yl]benzonitrile]
< 100 nM | < 100 nM | Cc1ccc(-c2c(-c3ccc(C#N)cc3)nc(N3CCC4CNCC4CC3)c(=O)n2C)cc1 (stereo not drawn) [Example 25, 4-(6-{decahydropyrrolo[3,4-d]azepin-6-yl}-4-methyl-3-(4-methylphenyl)-5-oxo-4,5-dihydropyrazin-2-yl)benzonitrile]
